Laboratory results taken from publication PMC11811597, “Phenomics‐Based Discovery of Novel Orthosteric Choline Kinase Inhibitors” (Angewandte Chemie (International Ed. in English), 2025).
“Also recorded” adds a separate entry of the source.

Columns and labels:
[1] = molecular target: T1, CHKA (Homo sapiens, UniProt P35790); experiment: Competitive affinity-based chemoproteomics (UNC0965 matrix), PBMC cell extract; assay type: binding; parameters: endogenous in cells; details: 20 µM competitor
Procedure: (§1) described.[2] Lysates were precleared with bead slurry (100 μL) for 30 min at 4 °C and then treated with UNC0638 or UNC0737 (20 μM) or DMSO control for 30 min at 4 °C followed by incubation with affinity matrix for 2 h at 4 °C. Affinity matrices were washed with buffer A (5 mL) and proteins eluted with 100 μL of 2x Laemmli sample buffer, 100 mM DTT, in PBS and heating for 10 min at 90 °C.
Eluents (70 µL) were diluted in 0.1 M Tris (pH 7.8) to 200 µL, reduced with 5 mM DTT for 30 min at RT, and alkylated with 20 mM iodoacetamide for 30 min at RT in the dark. Proteins were precipitated by sequential addition of MeOH (600 µL), CHCl3 (150 µL) and H2O (450 µL), pelleted (17,000 × g, 5 min), washed with further MeOH (2 × 600 µL), and re-pelleted. Air dried pellets were resuspended in 50 μL 6 M urea (pH 7.8) by vortexing and then diluted with 250 μL H2O before adding 1 µg trypsin for overnight incubation at 37 °C. The digests were acidified with FA (1% v/v final concentration), desalted using SOLA HRP SPE Cartridges (Thermo Fisher), eluted with 69% v/v MeCN, 0.1% v/v FA in H2O (600 μL) and dried in vacuo. Dried peptides were stored at -20 °C before resuspension in 2% v/v MeCN, 0.1% v/v FA in H2O (20 μL) for LC-MS/MS analysis.
LC-MS/MS Data Acquisition
(§2) Digested samples were analysed by nano-UPLC–MS/MS using a Dionex Ultimate 3000 nano UPLC fitted with an EASY spray column (75 μm × 500 mm, 2 μm particle size, Thermo Scientific), coupled to an Orbitrap Q Exactive instrument. […]
(§3) Raw data was processed using MaxQuant[3] version 2.0.1.0 and the reference complete human proteome FASTA file (UniProt, downloaded 05.08.21). Label Free Quantification (LFQ) and Match Between Runs were selected; Cysteine carbamidomethylation was selected as a fixed modification, and methionine oxidation and asparagine deamidation as variable modifications. Default settings for identification and quantification were used. […]
mode selected for both identification and quantification of proteins (razor peptides are uniquely assigned to protein groups and not to individual proteins).

[2] = molecular target: T1, CHKA; experiment: Competitive affinity-based chemoproteomics (UNC0965 matrix), MCF7 lysate; assay type: binding; parameters: endogenous in cells; host or cells: MCF7 whole cell lysate; details: 20 μM competitor; for FC vs DMSO (log2 competition), CHKA: MCF7 lysate, n=2; for competition for CHKA binding to affinity matrix: MCF7 lysates
Procedure: A-366 and UNC0638 were purchased from Tocris. ARIAD and V-11-07-11 were purchased from Wuxi Apptec. UNC0737 and UNC0965 were synthesised as previously described.[1] Hemicholinium-3 and pyruvate kinase/lactic dehydrogenase enzymes were purchased from Sigma Aldrich. Aqueous and organic solvents were MS-grade and acquired by Sigma Aldrich unless stated otherwise.
MDA-MB-231, MCF7 and HEK293 cells were cultured in DMEM (Gibco, #11965092) supplemented with 10% FBS. K562 were cultured in IMDM (Gibco, #12440053) supplemented with 10% FBS. HepG2 were cultured in MEM (Gibco, #11095080) supplemented with 10 % FBS. […]
cultured in McCoy’s 5A (Sigma, M8403) supplemented with 10 % FBS and 1x GlutaMAX (Gibco, #35050061). Cells were maintained at 37 °C in a humidified 5% CO2 atmosphere. Peripheral blood mononuclear cells (PBMC) were isolated from healthy blood donors by density centrifugation. […]
Chemical Proteomics Drug Pulldown
For lysate generation MCF7 cells were grown until approximately 80% confluency before being pelleted and washed with PBS. Cell pellets were subsequently lysed by addition of Buffer A (50 mM Tris pH 7.5, 0. 8% v/v NP-40, 5% v/v glycerol, 1.5 mM MgCl2, 100 mM NaCl, 25 mM NaF, 1 mM Na3VO4, 1 mM PMSF, 1 mM DTT, 10 μg mL−1 TLCK, 1 μg mL−1 Leupeptin, 1 μg mL−1 Aprotinin, 1 μg mL−1 soy bean trypsin) as previously described.[2]
For each pulldown condition, UNC0965 was coupled to 100 μL of UltraLink Immobilized Streptavidin Plus bead slurry (50% in isopropanol, GE Healthcare) to generate the affinity matrix as previously […]
as §1
Eluents (70 µL) were diluted in 0.1 M Tris (pH 7.8) to 200 µL, reduced with 5 mM DTT for 30 min at RT, and alkylated with 20 mM iodoacetamide for 30 min at RT in the dark. […]
as §2, §3

T1 sequence (P35790 whole entry): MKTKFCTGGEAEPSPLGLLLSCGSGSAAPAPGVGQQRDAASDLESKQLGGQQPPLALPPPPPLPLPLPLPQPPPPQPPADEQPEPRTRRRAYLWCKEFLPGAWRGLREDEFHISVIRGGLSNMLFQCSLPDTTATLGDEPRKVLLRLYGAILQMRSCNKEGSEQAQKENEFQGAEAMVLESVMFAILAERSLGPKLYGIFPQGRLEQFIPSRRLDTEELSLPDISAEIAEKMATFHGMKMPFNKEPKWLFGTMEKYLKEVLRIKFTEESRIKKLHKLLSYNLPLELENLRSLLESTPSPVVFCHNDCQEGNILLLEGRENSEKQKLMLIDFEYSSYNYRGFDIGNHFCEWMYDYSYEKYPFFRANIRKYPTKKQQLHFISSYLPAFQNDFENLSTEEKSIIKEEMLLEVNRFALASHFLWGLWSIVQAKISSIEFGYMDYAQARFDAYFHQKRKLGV

Structure (SMILES) | competition for CHKA binding to affinity matrix [1] | FC vs DMSO (log2 competition), CHKA [2] | competition for CHKA binding to affinity matrix [2]
COc1cc2c(NC3CCN(C(C)C)CC3)nc(C3CCCCC3)nc2cc1OCCCN1CCCC1 [UNC0638] | sole shared target | -2.284 | shared off‐target
COc1cc2c(N(C)C3CCN(C(C)C)CC3)nc(C3CCCCC3)nc2cc1OCCCN1CCCC1 [UNC0737] | sole shared target; also recorded: reduced stronger | -4.09 | shared off‐target; also recorded: even stronger competition
